“And” between values parts separate entries of the source, which are not always exact repeats. Equal values may be shown once.
What was measured:
Assay type in all cases: cell-based, human
HaCaT cells = experiment: Cytotoxicity assessment, EZ-Cytox assay, HaCaT cell growth rate; conditions: untreated = 100
Protocol: HaCaT cells, which are human epidermal keratinocytes, were distributed from Dr. C. G. Hyun (Jeju National University, Korea) and Dulbecco's Modified Eagle's Medium (DMEM) medium containing 100 units/ml of penicillin-streptomycin and 10% by volume of fetal bovine serum (FBS) was used and cultured at 37° C. and 5% CO2 incubator. Subculture was performed at intervals of 3 to 4 days.
The EZ-cytox assay is a representative method for measuring cell viability using the principle that water solution tetrazolium salt (WST) reacts with dehydrogenase of living cells to generate orange water-soluble formazan.
HaCaT cells were aliquoted in a 96-well plate at 1.0×10^4 cells/mL using DMEM medium supplemented with 10% by volume of FBS to check cytotoxicity and then cultured at 37° C., 5% CO2 condition for 18 hours. The cultured HaCaT cells were exchanged with serum-free DMEM to treat the extract to be evaluated. After that, EZ-cytox was added to each well and reacted for 30 minutes at 37° C. and 5% CO2, and absorbance was measured at 450 nm using a microplate reader. The average absorbance value for each sample group was obtained, and the cell viability was evaluated by comparing it with the absorbance value of the control group.

[1] = tested on: thymus and activation regulated chemokine (TARC); experiment: TARC production inhibitory activity in HaCaT cells (ELISA); conditions: IFN (30 ng/ml) + TNF (30 ng/ml) stimulated = 100
Protocol: In order to confirm the atopic treatment effect on the carrot stems and leaves extract according to the present disclosure, atopic thymus and activation regulated chemokine (TARC) was analyzed.
HaCaT cells were aliquoted in a 24-well plate at 1.5×10^5 cells/mL and cultured at 37° C., 5% CO2 conditions for 18 hours. […] Then, the atopic chemokine production content of the supernatant obtained by centrifugation of the culture medium (12,000 rpm, 3 min) was measured. All samples were stored frozen (−20° C.) until quantification. For TARC content, a human enzyme-linked immunosorbent assay (ELISA) kit (R&D Systems Inc., Minneapolis, Minn., USA) was used, and the r^2 value of the standard curve for the standard was 0.99 or more.

hyaluronic acid = experiment: Hyaluronic acid production in HaCaT cells (ELISA); conditions: 24 hours, untreated = 100
Protocol: HaCaT cells were aliquoted in a 24-well plate at 1.0×10^5 cells/mL and cultured at 37° C., 5% CO2 conditions for 18 hours. It was replaced with a serum-free DMEM medium, and the samples in Table 2 were treated and cultured for 24 hours. After that, the culture medium was removed, centrifuged at 15,000 rpm for 5 minutes, and the supernatant was removed and stored frozen (−20° C.) until quantification. As a control group, a sample treated with retinoic acid (RA) at a concentration of 10 μM was used. Enzyme-Linked Immunosorbent Assay (ELISA) was performed using a hyaluronic acid ELISA kit (Elabscience Biotechnology Co., Ltd) and the method provided by the manufacturer.

Filaggrin = experiment: Skin barrier strengthening: filaggrin production in HaCaT cells (ELISA); conditions: 10 μM, 24 hours, untreated = 100
Protocol: HaCaT cells were aliquoted in a 24-well plate at 1.0×10^5 cells/mL and cultured at 37° C., 5% CO2 conditions for 18 hours. It was exchanged with serum-free DMEM, and the carrot stems and leaves extracts and roots extracts of the samples in Table 2 were treated and cultured for 24 hours. After removing the culture medium and washing with PBS for each group, PBS is containing no drug that may affect protein quantification was treated. The protein was collected after lysing the cells by repeating low-temperature and room-temperature incubation. As a control group, a sample treated with retinoic acid (RA) at a concentration of 10 μM was used. Quantification was performed using the Filaggrin-ELISA kit (Elabscience Biotechnology Co., Ltd) and was performed by the method provided by the manufacturer.

| SMILES | HaCaT cell growth rate (%) (HaCaT cells; 12.5 μM) | HaCaT cell growth rate (%) (HaCaT cells; 25 μM) | HaCaT cell growth rate (%) (HaCaT cells; 50 μM) | HaCaT cell growth rate (%) (HaCaT cells; 100 μM) | TARC production (%) ([1]; 12.5 μM) | TARC production (%) ([1]; 25 μM) | TARC production (%) ([1]; 50 μM) | HA production (%) (hyaluronic acid; 25 μM) | HA production (%) (hyaluronic acid; 50 μM) | HA production (%) (hyaluronic acid; 100 μM) | HaCaT cell growth rate (%) (HaCaT cells; 10 μM) | FLG production (%) (Filaggrin) | HA production (%) (hyaluronic acid; 10 μM) |
| --- | --- | --- | --- | --- | --- | --- | --- | --- | --- | --- | --- | --- | --- |
| CCCCC/C=C\C/C=C\CCCCCCCC(=O)OC[C@@H](O)CO (racemic) [Monolinolein] | 106.0 ± 2.6% | 102.2 ± 1.0% | 101.5 ± 1.7% | 122.6 ± 2.1% | 75.2 ± 0.07% | 37.7 ± 1.59% | 30.9 ± 1.97% | 102.7 ± 0.14% | 113.7 ± 0.14% | 114.4 ± 0.05% | – | – | – |
| CCCCC/C=C\C/C=C\CCCCCCCC(=O)OCC [Ethyl linoleate, ethyl linoleate] | 92.5 ± 3.0% | 92.3 ± 2.0% | 88.9 ± 2.3% | 94.1 ± 3.0% | 78.3 ± 0.10% | 53.8 ± 0.16% | 42 ± 0.81% | 92.7 ± 0.27% | 85.5 ± 0.27% | 89.5 ± 0.07% | – | – | – |
| CC1=C(/C=C/C(C)=C/C=C/C(C)=C/C(=O)O)C(C)(C)CCC1 [Retinoic acid, retinoic acid, reference compound] | – | – | – | – | – | – | – | – | – | – | 103.8 ± 2.1% | 157.5 ± 0.13% | 153.1 ± 0.14% and 100.0 ± 0.36% |
| CC/C=C\C/C=C\C/C=C\CCCCCCCC(=O)O [α-Linolenic acid, α-linolenic acid] | 97.8 ± 3.6% | 96.1 ± 4.4% | 92.1 ± 3.9% | 106.9 ± 1.0% | 72.6 ± 0.03% | 45.6 ± 0.51% | 35.7 ± 1.44% | 105.0 ± 0.06% | 110.5 ± 0.02% | 116.3 ± 0.26% | – | – | – |

From US20220378688A1, “Moisturizing or anti-atopic composition containing fatty acids or fatty acid derivatives” (DAEBONG LS, LTD, priority 2019, published 2022)
